Results published in US20220370416A1, “COMPOUNDS AND METHODS FOR TARGETED DEGRADATION OF KRAS” (Arvinas Operations, Inc., priority 2020, published 2022).

How the values were obtained:
KRAS^G12C [1] = target: T1, KRAS^G12C (Homo sapiens, UniProt P01116, G12C); assay: KRAS^G12C engagement and degradation by immunoblot in SW1573 cells; assay type: cell-based; parameters: MRTX849-VHL bifunctional compounds engage and degrade endogenous KRAS^G12C in NCI-H2030 cells; endogenous in cells; host or cells: NCI-H2030, NCI-H358, MIA PaCa-2, SW1573, NCI-H23; settings: for KRAS, two-way ANOVA significance vs DMSO: FIG. 11
Description: NCI-H2030 (CRL-5914), MIA PaCa-2 (CRL-1420), NCI-H23 (CRL-5800), NCI-H358 (CRL-5807), and HCT-116 (CCL-247) cells were obtained from ATCC, expanded immediately, and frozen down. Vials were thawed and used within 20 passages. SW1573 cells were a gift from Arvinas and were handled in the same manner. NCI-H2030, NCI-H23, and NCI-H358 were cultured in RPMI (ATCC30-2001) supplemented with 10% FBS (Biological Industries; cat. no. S1480) and 1% Penicillin-Streptomycin (ThermoFisher; cat. no. 15140122). HCT-116 cells were maintained in high glucose DMEM (ThermoFisher; cat. no. 11965084) supplemented as above. MIA PaCa-2 cells were cultured in high glucose DMEM supplemented with 10% FBS, 2.5% horse serum (ThermoFisher; cat. no. 26050-088; lot 2109875), and 1% Penicillin-Streptomycin. SW1573 cells were maintained in DMEM/F12 Nutrient Mix with GlutaMAX supplement (ThermoFisher; cat. no. 10565018) with 10% FBS and 1% Penicillin-Streptomycin added. DPBS (ThermoFisher; cat. no. 14190250) was used to wash cells and 0.25% Trypsin-EDTA (ThermoFisher; cat. no. […]) was used to detach cells for passaging. […] The VHL ligand was generously provided by Arvinas.
Between 2.5×10^5 and 6.0×10^5 cells were seeded into 6-well plates (Corning; cat. no. 353046). The next day, media was removed and cells were treated with 2.5 μM LC-2 for 1, 2, 4, 8, 12, or 24 hours. […] For 24-hour time course experiments, cells were treated at the indicated times and concurrently lysed in RIPA buffer supplemented as described previously. For longer time course experiments and time courses in which cells were treated with LC-2 or LC-2 Epimer, cells were concurrently treated with either compound, then lysed by scraping in RIPA buffer at the indicated time points.
Cell lysates were clarified at 21000×g for 15 mins at 4° C. Protein levels were quantified using a 50:1 mixture of bicinchoninic acid solution (Millipore Sigma; cat. no. B9643) and 4% (w/v) copper(II) sulfate solution (Millipore Sigma; cat. no. C2284) incubated at 37° C. for 30 mins. Absorbance values at 560 nm were read on an EnVision 2101 Multilabel Reader (PerkinElmer). Proteins were separated using 26 well Criterion TGX precast 4-15% (cat. no. 5671085) or 8-16% (cat. no. 5671105) gradient midi gels. After separation, proteins were transferred to nitrocellulose or PVDF membranes at 76 V for 2 hours at 4° C. Blots were then blocked in 5% milk in tris-buffered saline with Tween-20 (TBST; 20 mM Tris, 150 mM NaCl, 0.02% Tween-20). After blocking, blots were incubated in primary antibody overnight (12-18 hours) at 4° C. or for 2 hours at room temperature with mild agitation at the manufacturer's indicated dilution in either 5% milk or 5% BSA in TBST. Blots were then washed thrice with TBST for 5 mins at room temperature. After washing, blots were incubated with 1:5,000-1:10,000 of donkey anti-rabbit (GE Life Sciences; NA934) or sheep anti-mouse (GE Life Sciences; NA931) secondary antibody diluted in 5% milk for 1 hour at room temperature with mild agitation. Blots were again washed thrice with TBST for 5 mins. Chemiluminescent signal was generated using Amersham ECL Prime Western Blotting Detection Reagant (GE Life Sciences; cat. no. RPN2232) or SuperSignal West Femto Maximum Sensitivity Substrate (ThermoFisher; cat. no. 34095). Images were obtained using a Bio-Rad ChemiDoc Imager. Fluorescent α-tubulin images were collected with the Bio-Rad ChemiDoc Imager using an Alexa488 filter. The primary antibodies used in this work include: KRAS (LSBio; clone 2C1; cat. no. LS-C175665), p-p42/44 MAPK (phospho T202/Y204) (pErk; Cell Signaling Technologies (CST); cat. no. 4370S or 9106S), p42/44 MAPK (Erk1/2; CST; cat. no. 4695S), alpha-tubulin (CST; 2144S), and alpha-tubulin w/AlexaFluor488 (Millipore; cat. no. 16-232).
Band intensities were quantified using BioRad's Image Lab Software. […]

pErk = settings: NCI-H2030, 24 hour dose response
Description: The ability of LC-2 to modulate Erk signaling was investigated in NCI-H2030 and NCI-H23 cells during a 24 hour dose response.
NCI-H2030, NCI-H23, and NCI-H358 were cultured in RPMI (ATCC30-2001) supplemented with 10% FBS (Biological Industries; cat. no. S1480) and 1% Penicillin-Streptomycin (ThermoFisher; cat. no. 15140122). HCT-116 cells were maintained in high glucose DMEM (ThermoFisher; cat. no. 11965084) supplemented as above. […] DPBS (ThermoFisher; cat. no. 14190250) was used to wash cells and 0.25% Trypsin-EDTA (ThermoFisher; cat. no. 252000-056) was used to detach cells for passaging.
Cell lysates were clarified at 21000×g for 15 mins at 4° C. Protein levels were quantified using a 50:1 mixture of bicinchoninic acid solution (Millipore Sigma; cat. no. B9643) and 4% (w/v) copper(II) sulfate solution (Millipore Sigma; cat. no. C2284) incubated at 37° C. for 30 mins. Absorbance values at 560 nm were read on an EnVision 2101 Multilabel Reader (PerkinElmer). Proteins were separated using 26 well Criterion TGX precast 4-15% (cat. no. 5671085) or 8-16% (cat. no. 5671105) gradient midi gels. […]
Band intensities were quantified using BioRad's Image Lab Software. […] Data was analyzed by computing one-way ANOVAs or two-way ANOVAs (for grouped data) using multiple comparisons in which the mean of DMSO was compared to all treatment means using GraphPad Prism 7. […]

KRAS^G13D = target: T2, KRAS^G13D (Homo sapiens, UniProt P01116, G13D); assay: KRAS degradation by immunoblot in HCT 116 cells (specificity); assay type: cell-based; settings: up to 10 μM
T2 construct: endogenous in cells; host or cells: HCT116
Description: MRTX is known to be selective for mutant KRAS^G12C over other KRAS mutants (Hallin et al. 2020). To explore the specificity of LC-2, KRAS degradation was examined in HCT 116 cells, which harbor a heterozygous KRAS^G13D mutation.
NCI-H2030 (CRL-5914), MIA PaCa-2 (CRL-1420), NCI-H23 (CRL-5800), NCI-H358 (CRL-5807), and HCT-116 (CCL-247) cells were obtained from ATCC, expanded immediately, and frozen down. Vials were thawed and used within 20 passages. SW1573 cells were a gift from Arvinas and were handled in the same manner. […]
Cell lysates were clarified at 21000×g for 15 mins at 4° C. Protein levels were quantified using a 50:1 mixture of bicinchoninic acid solution (Millipore Sigma; cat. no. B9643) and 4% (w/v) copper(II) sulfate solution (Millipore Sigma; cat. no. C2284) incubated at 37° C. for 30 mins. Absorbance values at 560 nm were read on an EnVision 2101 Multilabel Reader (PerkinElmer). […]
Band intensities were quantified using BioRad's Image Lab Software. Total KRAS levels were examined by quantifying levels of both conjugated KRAS^G12C and unbound KRAS (wt or mutant) using an analysis box that spanned the two bands. This same sized box was used to quantify unbound KRAS in DMSO treated samples to account for background, except for LC-2 Epimer in FIGS. 6A and 6B. […]

KRAS^G12C [2] = target: T1, KRAS^G12C; assay: KRAS^G12C degradation in heterozygous NCI-H23 cells; assay type: cell-based; parameters: endogenous in cells; host or cells: NCI-H23

Row | SMILES | time to near maximal engagement (KRAS^G12C [1]; SW1573, 2.5 μM) | KRAS^G12C engagement and protein levels (KRAS^G12C [1]; SW1573, longer time course (FIG. 8)) | pErk signaling (pErk) | total Erk levels (pErk) | engagement or degradation of KRAS^G13D (KRAS^G13D) | duration of KRAS degradation (KRAS^G12C [1]; SW1573, 2.5 μM) | time to maximal KRAS degradation (KRAS^G12C [1]; SW1573, 2.5 μM, 6, 24, 48, 72 hours) | KRAS, two-way ANOVA significance vs DMSO (KRAS^G12C [1]; SW1573, 2.5 μM, 1 hour) | KRAS, two-way ANOVA significance vs DMSO (KRAS^G12C [1]; SW1573, 2.5 μM, 2 hours) | KRAS, two-way ANOVA significance vs DMSO (KRAS^G12C [1]; SW1573, 2.5 μM, 4 hours) | KRAS, two-way ANOVA significance vs DMSO (KRAS^G12C [1]; SW1573, 2.5 μM, 8 hours) | KRAS, two-way ANOVA significance vs DMSO (KRAS^G12C [1]; SW1573, 2.5 μM, 12 hours) | time to maximal degradation (KRAS^G12C [1]; SW1573, 2.5 μM, 24 hour time course) | KRAS, two-way ANOVA significance vs DMSO (KRAS^G12C [1]; SW1573, 2.5 μM, 24 hours) | DC50 (KRAS^G12C [1]; SW1573, homozygous KRAS^G12C) | Dmax (KRAS^G12C [1]; SW1573, homozygous KRAS^G12C) | rescue of induced KRAS^G12C degradation (mechanism) (KRAS^G12C [2]; NCI-H23 cells, neddylation inhibition vs inhibition of lysosomal acidification (FIG. 5B)) | induction of KRAS^G12C degradation (KRAS^G12C [2]; heterozygous NCI-H23 cells (FIG. 4D))
1 | C=C(F)C(=O)N1CCN(c2nc(OC[C@@H]3CCCN3CCCOCCC(=O)N[C@H](C(=O)N3C[C@@H](O)C[C@H]3C(=O)NCc3ccc(-c4scnc4C)cc3)C(C)(C)C)nc3c2CCN(c2cccc4cccc(Cl)c24)C3)C[C@@H]1CC#N [LC-2 Epimer, (2S,4S)-1-((S)-2-(3-(3-((S)-2-(((7-(8-chloronaphthalen-1-yl)-4-((S)-3-(cyanomethyl)-4-(2-fluoroacryloyl)piperazin-1-yl)-5,6,7,8-tetrahydropyrido[3,4-d]pyrimidin-2-yl)oxy)methyl)pyrrolidin-1-yl)propoxy)propanamido)-3,3-dimethylbutanoyl)-4-hydroxy-N-(4-(4-methylthiazol-5-yl)benzyl)pyrrolidine-2-carboxamide] | 1 h | fully engaged KRAS^G12C in SW1573 cells, but did not decrease protein levels | – | – | – | – | – | – | – | – | – | – | – | – | – | – | – | –
2 | C=C(F)C(=O)N1CCN(c2nc(OC[C@@H]3CCCN3CCCOCCC(=O)N[C@H](C(=O)N3C[C@H](O)C[C@H]3C(=O)NCc3ccc(-c4scnc4C)cc3)C(C)(C)C)nc3c2CCN(c2cccc4cccc(Cl)c24)C3)C[C@@H]1CC#N [LC-2, (2S,4R)-1-((S)-2-(3-(3-((S)-2-(((7-(8-chloronaphthalen-1-yl)-4-((S)-3-(cyanomethyl)-4-(2-fluoroacryloyl)piperazin-1-yl)-5,6,7,8-tetrahydropyrido[3,4-d]pyrimidin-2-yl)oxy)methyl)pyrrolidin-1-yl)propoxy)propanamido)-3,3-dimethylbutanoyl)-4-hydroxy-N-(4-(4-methylthiazol-5-yl)benzyl)pyrrolidine-2-carboxamide] | – | – | dose-dependent decrease in signaling | elevated in a dose-dependent manner | No engagement or degradation | sustained up to 72 hours | ≤ 24 h | N.S. | N.S. | N.S. | ** (** p < 0.01) | ** (** p < 0.01) | 12 h | *** (*** p < 0.005) | 760 ± 300 nM | > 85% | Inhibition of neddylation, but not inhibition of lysosomal acidification, rescues | induces KRAS^G12C degradation
